Source: US20060241174A1, “Vitamin E tocotrienols inhibition of intracellularly obligate pathogen Chlamydia and methods of use” (priority 2005, published 2006)

Legend:
Chlamydia = assay: Detection of Chlamydia-infected white blood cells in hyperlipidemic patients with delta-tocotrienol supplementation; format: in vivo, human
Description: FIG. 6 illustrates detection and quantification of Chlamydia-infected white blood cells in hyperlipidemic patients with delta-tocotrienol supplementation. Buffy coats of hyperlipidemic patients were immunostained, and for each sample, aliquots of 10,000 cells were assessed. A dotplot of a hyperlipidemic patient prior to supplementation with delta-tocotrienol is shown in the left panel, and a dotplot of a hyperlipidemic patient after 2 months of delta-tocotrienol supplementation (100 mg/day) is shown in the right panel.
Flow Cytometry Assessment of WBC: Flow cytometry (FC) quantification of Chlamydia-infected peripheral WBC used PBS rinsed buffy coat (BC) from HP samples. The BC cells were fixed and permeabilized (1% paraformaldehyde and 1% Triton X-100, 10 min. at RT; Aldrich Chemical Company, Inc., Milwaukee, Wis.). BCs were separately incubated for 1 hour with a 1:200 dilution of rabbit anti-Chlamydia primary antibody (Biodesign International, Saco, Me.) followed by a 1 hour incubation with a 1:150 dilution of FITC-conjugated goat anti-rabbit IgG (H+L) (Jackson ImmunoResearch, West Grove, Pa.), PBS rinsed X3, and mono-dispersed by passage through a nylon mesh filter (Lab-Line Instruments Inc, Melrose Park, Ill.). Sufficient WBCs were added to obtain 10,000 cells/tube and samples were analyzed for carriage of Chlamydia-infected cells by FACScan (Becton, Dickinson and Company, Franklin Lakes, N.J.).
Detection of Chlamydia-Infected White Blood Cells (WBC): Smears of whole blood from each 10 ml hyperlipidemic HP blood sample, average donor age 54 years, were fixed with 70% MEOH for subsequent staining. Immunostaining used a 1:125 dilution of rabbit polyclonal anti-Chlamydia EB antibody followed by a 1:125 dilution of TRITC-conjugated goat anti-rabbit antibody (H+L) (Jackson ImmunoResearch, West Grove, Pa.). Slides were incubated at room temperature for 1 hour with each diluted antibody, rinsed, mounted and sealed as described above. Digital images of optical sections through these samples were acquired with a Zeiss LSM 510 Meta Confocal System.
In a clinical study, buffy coats from blood samples drawn both before and after delta-tocotrienol supplementation were immunostained for detection of Chlamydia-infected cells. The samples were tested for LDL levels both before and after delta-tocotrienol supplementation.

C. trachomatis serovar K = assay: Inclusion count by immunofluorescence in C. trachomatis-infected mouse macrophages (J774A.1) treated with delta tocotrienol; format: cell-based, Chlamydia trachomatis
Description: FIG. 3 illustrates Chlamydia-infected mouse macrophage cells treated with delta tocotrienol (400× magnification). Mouse macrophages (J774A. 1 cells) were pretreated with a 30 μmol/L concentration of delta tocotrienol in culture for 4 hours and infected with C. trachomatis SVK for 48 hours. Arrows indicate inclusions. Cells were viewed and digitally documented using a Zeiss LSM 510 Meta Confocal System at a magnification of 400×. White arrows point out characteristic inclusions (Scale indicates 50 μm).
FIG. 4 illustrates Chlamydia-infected mouse macrophage cells treated with delta tocotrienol (630× magnification). White arrows point to representative cells. Note numerous very small, unfused inclusions in A (Scale indicates 50 μm).
Chlamydial Strains: Stocks of C. trachomatis serovar K/VR887 were grown in J774A.1 cells without centrifuge assistance. Infected cells were lysed, this stock aliquoted and frozen down in SPG freeze medium (75.0 g sucrose, 0.52 g potassium phosphate, 1.22 g sodium phosphate dibasic, 0.72 g glutamic acid, diluted in […] ddH2O). These aliquots were stored in liquid N2 or at −80° C., and later thawed for use to infect monolayers.
Cell Lines Used: Mouse macrophages (J774A.1), human mammary tumor cells (MCF-7), and human epithelial cells (Hep-2), were obtained from the American Type Culture collection. Human mammary tumor cells (TMX2-28) were a kind gift from Dr. Arcaro, and human B-lymphocytes (JY) were a kind gift from Dr. Eric Martz. All cell lines were maintained in Richter's improved MEM insulin (IMEMZO, Irvine Scientific, Santa Ana, Calif.) with 5% fetal bovine serum (FBS, Atlanta Biologicals, Norcross, Ga.). Cells were grown to 80% confluence on 12 mm coverslips in 12 well plates (Becton Dickinson Labware, Franklin Lakes, N.J.). A dilution of 1:125 or 1:200 of the C. trachomatis serovar K stock was made using the standard complete cycloheximide overlay media (Bio-Whittaker, Walkersville, Md.) containing 10% FBS, and 1× L-glutamine (CCOM). This was layered onto the coverslip containing monolayers, and incubated for 24-48 hours at 37° C. with 5% CO2. Coverslips with the cell monolayers were harvested, rinsed with phosphate buffered saline (PBS), fixed with 70% cold methanol, stored and subsequently immunostained.
Delta Tocotrienol Treatment: A stock of delta tocotrienol (98% purity, American River Nutrition, Hadley, Mass.) was diluted to 1 mg/1 ml in absolute ethanol [EtOH]. Confluent monolayers of J774A.1, MCF-7, TMX2-28, JY, or Hep-2 cells were treated with 5, 10, 20, 30, or 40 μmol/L concentrations of delta tocotrienol. Treatment occurred 5 hours prior to infection with C. trachomatis serovar K, at point of infection, or three hours post-infection.
Immunostaining: Briefly, infected cells were immunostained with a 1:2 dilution of guinea pig anti-chlamydia polyclonal antibody (Biomeda, Foster City, Calif.), or a 1:125 dilution of rabbit anti-chlamydia EB whole serum for 1 hour at 37° C. Following PBS rinses X3, the bound antibodies were detected using a 1:100 dilution of FITC-conjugated donkey anti-guinea pig or a 1:125 dilution of TRITC-conjugated goat anti-rabbit secondary antibodies (Jackson ImmunoResearch, West Grove, Pa.). Following incubation for 1 hour at room temperature and 3 rinses with PBS, coverslips were mounted onto slides using Fluoromount-G (Southern Biotechnology Associates Inc., Birmingham, Ala.) or Vectashield® Mounting Medium with DAPI (Vector Laboratories, Inc., Burlingame, Calif.), and were then sealed. Initially, slides were examined at 400× using a Nikon LABPHOT-2. For photography, slides were assessed in the Massachusetts Central Microscopy Facility using a Zeiss LSM 510 Meta Confocal System and 630× magnification. Images were captured, and as relevant, merged using the Confocal Assistant™ version 4.02 Image Processing Software.
Counts on all coverslips with experimental conditions as in FIG. 3 and 4 were done for the average of 10 fields of view. […]

[1] = First Infection, J774A.1, 30 μmol/L
[2] = Second Infection, J774A.1, 30 μmol/L
[3] = Third Infection, J774A.1, 30 μmol/L

delta tocotrienol
Chlamydial Infection Status after Delta-Tocotrienol Supplementation (Chlamydia; Patient 1, status before: negative): negative | Chlamydial Infection Status after Delta-Tocotrienol Supplementation (Chlamydia; Patient 2, status before: positive): negative | Chlamydial Infection Status after Delta-Tocotrienol Supplementation (Chlamydia; Patient 3, status before: strong positive): negative | Chlamydia-infected white blood cells by flow cytometry (FIG. 6) (Chlamydia; hyperlipidemic patient, 2 months supplementation, 100 mg/day, buffy coat, 10,000 cells): reduced the granularity and amount of Chlamydia-infected cells | morphology of chlamydial inclusions (FIG. 4) (C. trachomatis serovar K; 20-40 μmol/L delta tocotrienol, Chlamydia-specific immunofluorescence staining): immature, small, and less round | Inclusions (per field of view), Small (≦10 μm) (C. trachomatis serovar K; [1]): 4.5 per field of view | Inclusions (per field of view), Total (C. trachomatis serovar K; [1]): 5.2 per field of view | Inclusions Total/Cell (C. trachomatis serovar K; [1]): 0.058 | Inclusions (per field of view), Large (15-20 μm) (C. trachomatis serovar K; First Infection, J774A.1, 30 μmol/L delta tocotrienol, average of 10 fields of view): 0.7 per field of view | Percent Inhibition (C. trachomatis serovar K; First Infection, treated vs control, J774A.1, 30 μmol/L): 52.3% | large, mature inclusions (FIG. 3) (C. trachomatis serovar K; J774A.1, 30 μmol/L pretreatment, 48 hours infection, 400× magnification): no evidence of large, mature inclusions | size of large inclusions in the tocotrienol-treated cells (C. trachomatis serovar K; J774A.1, control cells 20 μm): 10-15 μm | inclusions thinner than in control cells (Z-axis) (C. trachomatis serovar K; J774A.1, optical sections, treated vs control): 3 fold | inclusions smaller than in control cells (X-Y axes) (C. trachomatis serovar K; J774A.1, treated vs control): 2 to 3 fold | Inclusions (per field of view), Large (15-20 μm) (C. trachomatis serovar K; Second Infection (supernatant transfer to uninfected treated cells), J774A.1, 30 μmol/L): 1.4 per field of view | Inclusions (per field of view), Small (≦10 μm) (C. trachomatis serovar K; [2]): 0.6 per field of view | Inclusions (per field of view), Total (C. trachomatis serovar K; [2]): 2.0 per field of view | Inclusions Total/Cell (C. trachomatis serovar K; [2]): 0.032 | Percent Inhibition (C. trachomatis serovar K; Second Infection, treated vs control, J774A.1, 30 μmol/L): 43.8% | Inclusions (per field of view), Large (15-20 μm) (C. trachomatis serovar K; [3]): 0.7 per field of view | Inclusions (per field of view), Small (≦10 μm) (C. trachomatis serovar K; [3]): 1.1 per field of view | Inclusions (per field of view), Total (C. trachomatis serovar K; [3]): 1.8 per field of view | Inclusions Total/Cell (C. trachomatis serovar K; [3]): 0.016 | Percent Inhibition (C. trachomatis serovar K; Third Infection, treated vs control, J774A.1, 30 μmol/L): 39.0% | chlamydial inclusion volume smaller than control (C. trachomatis serovar K; calculated (2×3 to 3×3)): 6-9 fold | percent inhibition of inclusion formation in tocotrienol-treated as compared to untreated cells (C. trachomatis serovar K; summary of Table 1, 30 μmol/L): 40-50% | number of chlamydial inclusions (immunofluorescence staining) (C. trachomatis serovar K; tocotrienol-treated cells vs control, FIG. 3, Table 1): decreased significantly
